Assay in all cases: inhibition of tumour cell growth, NCI panel, 48 h
The subject of assay [1] is 786-0.
Assay [2] deals with BT-549.
In assay [3] the test system is CCRF-CEM.
In assay [4] the test system is HCC 2998.
Assay [5] has as its system HL-60.
Assay [6] has as its system HOP-92.
Assay [7] deals with HT-29.
The subject of assay [8] is KM12.
The subject of assay [9] is MDA-MB-231.
Assay [10] has as its system MDA-N.
For assay [11], the system named is MOLT-4.
Assay [12] has as its system NCI-H226.
The test system of assay [13] is NCI-H460.
Assay [14] concerns SF-295.
Assay [15] has as its system SF-539.
Assay [16] has as its system SK-MEL-5.
Assay [17] concerns SN12C.
Assay [18] deals with SNB-75.

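Tested at 5 concentrations; 48 h exposure; 96-well plates; endpoints linearly interpolated, else capped at highest concentration. GI50 is the concentration that inhibits growth by half.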 Active and inactive are the calls of the source. Rule as the data show it: active = GI50 up to about 1.1 µM and inactive = higher.

As to `[N-]=[N+]=CC(=O)COC(=O)c1ccccc1`, the GI50 is > 100 µM (inactive) in assay [1]; > 100 µM (inactive) in assay [2]; > 100 µM (inactive) in assay [3]; > 100 µM (inactive) in assay [4]; > 100 µM (inactive) in assay [5]; 78 µM (inactive) in [6]. Also, the GI50 in assay [7], in assay [8], in assay [9], in [10], in assay [11] and in [12] was > 100 µM (inactive) each time. Moreover, the GI50 in assay [13], in assay [14], in [15], in assay [16], in [17] and in assay [18] was > 100 µM (inactive) throughout.
Turning to `[N-]=[N+]=C1C(=O)c2ccccc2-c2ccccc21`, the GI50 is 26.1 µM (inactive) in [1]; 34.4 µM (inactive) in [2]; 20.2 µM (inactive) in assay [3]; 51.3 µM (inactive) in [4]; 28.8 µM (inactive) in [5]; 33.3 µM (inactive) in assay [6]. The GI50 is 34.8 µM (inactive) in [7]; 39.2 µM (inactive) in assay [8]; 36 µM (inactive) in [9]; 43.7 µM (inactive) in assay [10]; 24.9 µM (inactive) in assay [11]; 30 µM (inactive) in assay [12]. Further, the GI50 in [13] was 32.1 µM (inactive); in assay [14], 33 µM (inactive); in assay [15], 24.6 µM (inactive); in assay [16] it was 15.7 µM (inactive); in assay [17], 35.2 µM (inactive); in assay [18], 20 µM (inactive).
As to `COC(=O)/C=C1/OC(c2ccc(C)cc2)=C(Cl)C1=O`, the GI50 in assay [1] was 13.9 µM (inactive); in assay [2] it was 17.7 µM (inactive); in assay [3] it was 3.26 µM (inactive); in assay [4], 18.9 µM (inactive); in assay [5], 3.31 µM (inactive); in assay [6] it was 15.2 µM (inactive). Also, the GI50 was 12.9 µM (inactive) in assay [7]; 14.6 µM (inactive) in assay [8]; 16.9 µM (inactive) in assay [9]; 16.4 µM (inactive) in assay [10]; 4.23 µM (inactive) in assay [11]; 23 µM (inactive) in assay [12]. Also, the GI50 was 22 µM (inactive) in assay [13]; 19.8 µM (inactive) in assay [14]; 16.6 µM (inactive) in assay [15]; 14.5 µM (inactive) in assay [16]; 17.9 µM (inactive) in assay [17]; 16.7 µM (inactive) in assay [18].
Regarding `CC(C(=O)OCc1ccccc1)(c1ccco1)N1C(=O)OC(c2ccccc2)C1c1ccccc1` (stereo not drawn), the GI50 in assay [1] was > 100 µM (inactive); in [2] it was > 100 µM (inactive); in assay [3] it was 4.04 µM (inactive); in assay [4], > 100 µM (inactive); in assay [5], 3.81 µM (inactive); in [6], > 100 µM (inactive). The GI50 in [7] was > 100 µM (inactive); in [8], > 25.8 µM (inactive); in assay [9], > 30.5 µM (inactive); in assay [10], > 51.1 µM (inactive); in [11], 5.05 µM (inactive); in assay [12], > 100 µM (inactive). Further, the GI50 in assay [13] was 26.1 µM (inactive); in assay [14], > 100 µM (inactive); in assay [15] it was > 100 µM (inactive); in assay [16], > 30.1 µM (inactive); in assay [17] it was > 100 µM (inactive); in [18] it was > 100 µM (inactive).
With `COC(=O)C1CC23C=CCN4CC(C2C)C2(c5ccccc5NC12)C43` (stereo not drawn), the GI50 in [1] is > 100 µM (inactive); in [2], > 100 µM (inactive); in assay [3], > 100 µM (inactive); in assay [4], > 100 µM (inactive); in assay [5], 64 µM (inactive); in [6] it was > 100 µM (inactive). For the same compound, the GI50 in assay [7], in [8], in assay [9], in assay [10], in assay [11] and in [12] was > 100 µM (inactive) in each case. For the same compound, the GI50 in assay [13] is > 100 µM (inactive); in [14], > 100 µM (inactive); in assay [15], > 100 µM (inactive); in assay [16], > 100 µM (inactive); in assay [17], > 100 µM (inactive); in assay [18], 87.7 µM (inactive).
As to `CC(=O)Nc1ccc(S(=O)(=O)/N=C2\C=CC(=O)c3ccccc32)cc1`, the GI50 in assay [1] is 9.25 µM (inactive); in [2], 12.1 µM (inactive); in assay [3], 3.37 µM (inactive); in assay [4], 3.21 µM (inactive); in assay [5], 0.481 µM (active); in assay [6], 5.07 µM (inactive). Besides, the GI50 in assay [7] was 13.6 µM (inactive); in assay [8], 10.5 µM (inactive); in assay [9] it was 2.78 µM (inactive); in assay [10], 1.95 µM (inactive); in assay [11] it was 0.428 µM (active); in assay [12] it was 5.97 µM (inactive). For the same compound, the GI50 is 12.1 µM (inactive) in assay [13]; 7.29 µM (inactive) in [14]; 7.66 µM (inactive) in [15]; 2.88 µM (inactive) in assay [16]; 4.92 µM (inactive) in [17]; 5.4 µM (inactive) in assay [18].
As for `CCOC(=O)C1(C(N)=O)C(=O)c2ccncc2C1=O` (stereo not drawn), the GI50 in assay [1], in assay [2], in [3], in assay [4], in assay [5] and in [6] was > 100 µM (inactive) throughout. Further, the GI50 in [7], in assay [8], in assay [9], in [10], in [12] and in [13] was > 100 µM (inactive) each time. In addition, the GI50 in [14], in assay [15], in assay [16], in assay [17] and in [18] was > 100 µM (inactive) in each case.
In the case of `NC(=O)c1ccc2c(c1)S(=O)(=O)c1ccccc1C2=O`, the GI50 is 64.6 µM (inactive) in [1]; > 100 µM (inactive) in [2]; > 100 µM (inactive) in assay [3]; > 100 µM (inactive) in [4]; > 100 µM (inactive) in [5]; 63.2 µM (inactive) in [6]. The GI50 in assay [7] is > 100 µM (inactive); in assay [8], > 100 µM (inactive); in assay [9] it was 65.2 µM (inactive); in assay [10], > 100 µM (inactive); in [11], > 100 µM (inactive); in [12], > 100 µM (inactive). In addition, the GI50 in [13] was > 100 µM (inactive); in [14], 57.8 µM (inactive); in assay [15], 46.6 µM (inactive); in [16], > 100 µM (inactive); in [17], > 100 µM (inactive); in [18], 46.8 µM (inactive).

The values are drawn from ChEMBL document CHEMBL1201862, “PubChem BioAssay data set” (2004).
